What is called IC50 is the point on the concentration scale where inhibition reaches its midpoint. What is called EC50 is the concentration needed to bring the measured effect to its halfway point.

The results in this text go back to patent publication US10030016B2 (Sunesis Pharmaceuticals, Inc., priority 2009, dated 2018).

Structures can show the parent of a compound that is named as a salt. Where two headings read alike, the source gives them in different places. Bounds are passed on as bounds.

One assay has as its target PDK1 (Homo sapiens (Human), UniProt O15530). As to the kind of experiment: PDK1 kinase assay (coupled PDK1/AKT/FAM-crosstide assay, IMAP fluorescence polarization). Format: biochemical. The gist of the method:
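Inhibition is derived by 4-parameter fitting of ΔmP from an IMAP fluorescence polarization read of FAM-crosstide (100 nM) phosphorylation. The cascade ran 30 min at 25 °C with 40 μM ATP, using insect-cell GST-PDK1 51-359 (0.75 nM) driving 10 nM unphosphorylated AKT2 140-467-PIFtide fusion.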
Background: Polarisation of emitted light reports the rotation of a fluorescent probe.

Assay [1] relates to phospho-akt (Thr308) in PC-3 cells. The assay can be described thus: Inhibition of phospho-akt (Thr308) in PC-3 cells, MSD phospho-akt 308 ELISA kit. It counts as cell-based. As to conditions: 2 hours, no serum, read-out: EC50. The gist of the method: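 Phospho-Akt (Thr308) levels were measured by MSD ELISA after PC-3 cells received compound for 2 hours in serum-free medium. Controls: DMSO (high), 5 μM wortmannin (low).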
(In general: ELISA stands for enzyme-linked immunosorbent assay.)

[2] abbreviates: Homo sapiens, inhibition of P308 Akt in PC-3 cells using MSD.
Where [3] appears, read: inhibition of phospo-PDK1 in vitro.
[4] abbreviates: Homo sapiens, inhibition of P308 Akt in PC-3 cells, MSD.

PDK1, sequence (O15530 51-359): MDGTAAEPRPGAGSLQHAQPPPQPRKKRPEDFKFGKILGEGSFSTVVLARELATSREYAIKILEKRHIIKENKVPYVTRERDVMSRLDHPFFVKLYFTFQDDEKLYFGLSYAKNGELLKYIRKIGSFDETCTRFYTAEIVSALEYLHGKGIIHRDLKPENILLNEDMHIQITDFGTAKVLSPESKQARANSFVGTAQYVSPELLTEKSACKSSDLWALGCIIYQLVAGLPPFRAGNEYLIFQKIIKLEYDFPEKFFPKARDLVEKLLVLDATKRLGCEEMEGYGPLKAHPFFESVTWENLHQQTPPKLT

In turn, `Nc1n[nH]c2ncc(-c3ccc(CNc4ncc(C(F)(F)F)cc4C(=O)N[C@H](CO)c4ccc(F)cc4)cc3)cc12` [Example 266] returned an IC50 against PDK1 (inhibition of PDK1 in vitro) of 0.1 to 1 µM. Also, the EC50 in assay [1] (setting [2]) is over 10 µM.
Compound `C[C@H](NC(=O)c1cc(C#N)cnc1NCc1ccc(-c2cnc(N)c(CCCN3CCOCC3)n2)cc1)c1ccc(F)cc1` [Example 88, 2-{4-[5-Amino-6-(3-morpholin-4-yl-propyl)-pyrazin-2-yl]-benzyl-amino}-5-cyano-N-[(S)-1-(4-fluoro-phenyl)-ethyl]-nicotinamide] displayed an IC50 against PDK1 (inhibition of PDK1 in vitro) of under 0.1 µM. In assay [1] (setting [2]), the EC50 was under 1 µM.
Take `Nc1ncnc2ccc(-c3ccc(CNc4ncc(S(=O)(=O)NCc5cccnc5)cc4C(=O)NCc4ccc(F)c(F)c4)s3)cc12` [Example 8.7.13, 2-(((5-(4-aminoquinazolin-6-yl)thiophen-2-yl)methyl)amino)-N-(3,4-difluorobenzyl)-5-(N-(pyridin-3-ylmethyl)sulfamoyl)nicotinamide]: the IC50 at PDK1 (setting [3]) was in the range of 0.1 to 1 µM. Besides, in assay [1] (setting [4]), the 50% effective concentration (EC50) lay in the range of 1 to 10 µM.
In the case of `CC(C)C(=O)Nc1cnc(NCc2ccc(-c3ccc4ncnc(N)c4c3)s2)c(C(=O)NCc2ccc(F)c(F)c2)c1` [Example 8.5.3, 2-({[5-(4-aminoquinazolin-6-yl)thiophen-2-yl]methyl}amino)-N-(3,4-difluorobenzyl)-5-[(2-methylpropanoyl)amino] pyridine-3-carboxamide], the IC50 on PDK1 (setting [3]) is 0.1 to 1 µM. In assay [1] (setting [4]), the EC50 is 1 to 10 µM.
In the case of `CNC(=O)c1cc(-c2ccc(CNc3ncc(C#N)cc3C(=O)N[C@@H](C)c3ccc(F)cc3)cc2)cnc1N` [Example 203, (S)-2-amino-5-(4-((5-cyano-3-(1-(4-fluorophenyl)ethylcarbamoyl)pyridin-2-ylamino)methyl)phenyl)-N-methylnicotinamide], the IC50 on PDK1 (inhibition of PDK1 in vitro) was under 0.1 µM. Further, the EC50 in assay [1] (setting [2]) is under 1 µM.
As to `Nc1ncnc2ccc(-c3ccc(CNc4ncccc4C(=O)NCc4ccc(Cl)c(Cl)c4)s3)cc12` [Example 3.29, 2-({[5-(4-aminoquinazolin-6-yl)thiophen-2-yl]methyl}amino)-N-(3,4-dichlorobenzyl) pyridine-3-carboxamide (TFA salt)], the IC50 on PDK1 (setting [3]) is 0.1 to 1 µM. Besides, the EC50 in assay [1] (setting [4]) lay within 1 to 10 µM.
With `C[C@H](NC(=O)c1cc(C#N)cnc1NCc1ccc(-c2cnc(N)c(C(=O)NCCCO)n2)cc1)c1ccc(F)cc1` [Example 209, (S)-3-amino-6-(4-((5-cyano-3-(1-(4-fluorophenyl)ethylcarbamoyl)pyridin-2-ylamino)methyl)phenyl)-N-(3-hydroxypropyl) pyrazine-2-carboxamide], the IC50 on PDK1 (inhibition of PDK1 in vitro) is under 0.1 µM. Further, the EC50 in assay [1] (inhibition of P308 Akt in PC-3 cells using MSD) is under 1 µM.
On to `C[C@H](NC(=O)c1cc(C#N)cnc1NCc1ccc(-c2cnc3[nH]nc(CCCN(C)C)c3c2)cc1)c1ccc(F)cc1` [Example 149, (S)-5-cyano-2-(4-(3-(3-(dimethylamino)propyl)-1H-pyrazolo[3,4-b]pyridin-5-yl)benzyl-amino)-N-(1-(4-fluorophenyl)ethyl) nicotinamide], for which the IC50 at PDK1 (inhibition of PDK1 in vitro) was under 0.1 µM. Besides, in assay [1] (setting [2]), the EC50 is under 1 µM.
Compound `COc1ccc([C@H](COc2ccc([N+](=O)[O-])c(N)c2)Nc2ncccc2C(=O)N[C@@H](C)c2ccc(F)c(F)c2)cc1` [Example 16.5, 2-((R)-2-(3-amino-4-nitrophenoxy)-1-(4-methoxyphenyl)ethylamino)-N-((S)-1-(3,4-difluorophenyl)ethyl)nicotinamide] registered an IC50 against PDK1 (setting [3]) of over 5 µM. Further, the EC50 in assay [1] (setting [4]) fell in the range of 1 to 10 µM.
Compound `C[C@H](NC(=O)c1nccnc1NCc1ccc(-c2cnc3[nH]ncc3c2)cc1)c1ccc(F)cc1` [Example 391, 3-[4-(1H-Pyrazolo[3,4-b]pyridin-5-yl)-benzylamino]-pyrazine-2-carboxylic acid [(S)-1-(4-fluoro-phenyl)-ethyl]-amide] had an IC50 at PDK1 (inhibition of PDK1 in vitro) of under 0.1 µM. The half-maximal effective concentration (EC50) in assay [1] (setting [2]) is 1 to 10 µM.
For the compound `Cn1cc(-c2ccc(CNc3ncc(C(F)(F)F)cc3C(=O)Nc3ccc(F)cn3)cc2)c2c(N)ncnc21` [Example 338, 2-(4-(4-amino-7-methyl-7H-pyrrolo[2,3-d]pyrimidin-5-yl)-benzylamino)-N-(5-fluoropyridin-2-yl)-5-(trifluoromethyl)nicotinamide], the IC50 against PDK1 (inhibition of PDK1 in vitro) is under 0.1 µM. Further, the EC50 in assay [1] (setting [2]) lay within 1 to 10 µM.
On PDK1 (setting [3]), `O=C(NCc1ccc(F)c(F)c1)c1cccnc1NCc1cccc(-c2c[nH]c3ncncc23)c1` [Example 6.2, 2-(3-(7H-pyrrolo[2,3-d]pyrimidin-5-yl)benzylamino)-N-(3,4-difluorobenzyl)nicotinamide] gave an IC50 of under 0.1 µM. Also, the EC50 in assay [1] (setting [4]) fell in the range of 1 to 10 µM.
At PDK1 (setting [3]), `Nc1ncnc2ccc(-c3ccc(CNc4ncccc4C(=O)NCc4ccc(Cl)cc4)s3)cc12` [Example 3.22, 2-({[5-(4-aminoquinazolin-6-yl)thiophen-2-yl]methyl}amino)-N-(4-chlorobenzyl)pyridine-3-carboxamide (TFA salt)] came in with an IC50 of 0.1 to 1 µM. The EC50 in assay [1] (Homo sapiens, PC-3, 2 h, inhibition of P308 Akt in PC-3 cells, MSD) was over 10 µM.
For `CN(C)CCCn1cc(-c2ccc(CNc3ncc(C(F)(F)F)cc3C(=O)NCc3ccc(F)c(F)c3)cc2)c2c(N)ncnc21` [Example 55, 2-(4-(4-amino-7-(3-(dimethylamino)propyl)-7H-pyrrolo[2,3-d]pyrimidin-5-yl)benzylamino)-N-(3,4-difluorobenzyl)-5-(trifluoromethyl)nicotinamide], the IC50 against PDK1 (inhibition of PDK1 in vitro) is under 0.1 µM. The EC50 in assay [1] (setting [2]) was under 1 µM.
In the case of `CC(C)(C)Nc1ncnc2ccc(-c3ccc(CNc4ncccc4C(=O)NCc4ccc(F)c(F)c4)s3)cc12` [Example 4.23, N-(3,4-difluorobenzyl)-2-(((5-(4-(tert-butylamino)quinazolin-6-yl)thiophen-2-yl)methyl)amino) nicotinamide], the IC50 at PDK1 (setting [3]) was in the range of 1 to 5 µM. Moreover, the EC50 in assay [1] (setting [4]) is over 10 µM.
Regarding `C[C@H](NC(=O)c1cc(C#N)cnc1NCc1ccc(-c2cnc(N)cn2)c(F)c1)c1ccc(F)cc1` [Example 131, (S)-2-(4-(5-aminopyrazin-2-yl)-3-fluorobenzylamino)-5-cyano-N-(1-(4-fluorophenyl)ethyl) nicotinamide], the IC50 on PDK1 (inhibition of PDK1 in vitro) is under 0.1 µM. The EC50 in assay [1] (setting [2]) was in the range of 1 to 10 µM.
The corresponding values for `C[C@H](NC(=O)c1cc(C#N)cnc1NCc1ccc(-c2cnc(N)c(C(=O)O)n2)cc1)c1ccc(F)cc1` [Example 207, (S)-3-amino-6-(4-((5-cyano-3-(1-(4-fluorophenyl)ethylcarbamoyl)pyridin-2-ylamino)methyl)phenyl)-pyrazine-2-carboxylic acid] are under 0.1 µM and over 10 µM.
Compound `C[C@H](NC(=O)c1cc(F)cnc1NCc1ccc(-c2cc3c(N)ncnc3cn2)s1)c1ccc(F)cc1` came in with an IC50 against PDK1 (setting [3]) of 0.1 to 1 µM. The EC50 in assay [1] (setting [4]) was in the range of 1 to 10 µM.
At PDK1 (setting [3]), `C[C@H](NC(=O)c1cc(S(C)(=O)=O)cnc1NCc1ccc(-c2ccc3ncnc(N)c3c2)s1)c1ccc(F)c(F)c1` showed an IC50 of 0.1 to 1 µM. Moreover, in assay [1] (setting [4]), the EC50 is under 1 µM.
On PDK1 (inhibition of PDK1 in vitro), `C[C@H](NC(=O)c1nc(C#N)cnc1NCc1ccc(-c2cnc3[nH]nc(NC(=O)C(C)(C)C)c3c2)cc1)c1ccc(F)c(F)c1` [Example 420, (S)-6-cyano-N-(1-(3,4-difluorophenyl)ethyl)-3-(4-(3-pivalamido-1H-pyrazolo[3,4-b]pyridin-5-yl)benzylamino)pyrazine-2-carboxamide] returned an IC50 of under 0.1 µM. Besides, in assay [1] (setting [2]), the EC50 lay within 1 to 10 µM.
The corresponding values for `C[C@H](NC(=O)c1cc(C(F)(F)F)cnc1NCc1ccc(-c2cnc3[nH]nc(N)c3c2)cc1)c1ccc(Cl)cc1` [Example 277, 2-(4-(3-amino-1H-pyrazolo [3,4-b]pyridin-5-yl)benzylamino)-N-(1-(4-chlorophenyl)ethyl)-5-(trifluoromethyl) nicotinamide] are under 0.1 µM and under 1 µM.
`C[C@H](NC(=O)c1cccnc1NCc1ccc(-c2ccc3ncnc(N4CC(O)C4)c3c2)s1)c1ccc(F)c(F)c1` [Example 4.34] returned an IC50 against PDK1 (setting [3]) of under 0.1 µM. For the same compound, the EC50 in assay [1] (setting [4]) was in the range of 1 to 10 µM.
In the case of `Nc1ncc(-c2ccc(CNc3ncc(C(F)(F)F)cc3C(=O)Nc3ccc(F)cc3)cc2)nc1CC[C@@H]1CCCN1` [Example 75, 2-{4-[5-Amino-6-((S)-2-pyrrolidin-2-yl-ethyl)-pyrazin-2-yl]-benzylamino}-N-(4-fluoro-phenyl)-5-trifluoromethyl-nicotinamide], on PDK1 (inhibition of PDK1 in vitro), the IC50 is under 0.1 µM. Also, the EC50 in assay [1] (setting [2]) was 1 to 10 µM.
At PDK1 (setting [3]), `Nc1ncnc2c1c(-c1ccc(CNc3ncc(C(F)(F)F)cc3C(=O)Nc3ccc(F)cc3)cc1)cn2C1COC1` [Example 443, 2-(4-(4-amino-7-(oxetan-3-yl)-7H-pyrrolo[2,3-d]pyrimidin-5-yl)benzylamino)-N-(4-fluorophenyl)-5-(trifluoromethyl)nicotinamide] had an IC50 of under 0.1 µM. Also, in assay [1] (setting [2]), the concentration for a half-maximal effect (EC50) is under 1 µM.
Turning to `Cc1nc2cc(-c3ccc(CNc4ncc(C#N)cc4C(=O)N[C@@H](C)c4ccc(F)cc4)cc3)cnc2[nH]1` [Example 138, (S)-5-cyano-N-(1-(4-fluorophenyl)ethyl)-2-(4-(2-methyl-3H-imidazo[4,5-b]pyridin-6-yl)benzylamino) nicotinamide], at PDK1 (inhibition of PDK1 in vitro), the IC50 was under 0.1 µM. Also, in assay [1] (setting [2]), the EC50 is under 1 µM.
`C[C@H](NC(=O)c1cc(C#N)cnc1NCc1ccc(-c2cnc3[nH]nc(N)c3c2)cc1)c1ccc(F)cc1` [Example 122, (S)-2-(4-(3-amino-1H-pyrazolo[3,4-b]pyridin-5-yl)benzylamino)-5-cyano-N-(1-(4-fluorophenyl)ethyl) nicotinamide] returned an IC50 at PDK1 (inhibition of PDK1 in vitro) of under 0.1 µM. The EC50 in assay [1] (setting [2]) was under 1 µM.
